Results on three molecules are retold here after patent publication US20260335347A1, “COMBINATION THERAPY WITH SPARSENTAN AND A SGLT2 INHIBITOR FOR TREATING KIDNEY DISEASES OR DISORDERS” (Travere Therapeutics, Inc., priority 2022, published 2026).

Like-named read-outs stand apart in the source and are kept apart here.

The test system of data set [1] is patients with FSGS. Put plainly: DUPLEX trial: proportion of patients achieving UP/C ≤1.5 g/g and >40% reduction in UP/C (FPRE). The format is in vivo, human. The following applies: p=0.0094; for patients achieving FPRE (UP/C ≤1.5 g/g and >40 percent reduction in UP/C from Baseline): after 36 weeks of treatment, first approximately 190 patients. As for the experimental part: (§1) The efficacy and safety of sparsentan were evaluated in DUPLEX, a randomized, double-blind, active-controlled, multicenter, global trial in patients with FSGS after exclusion of known secondary causes.
The trial enrolled patients with eGFR≥30 mL/min/1.73 m^2 and urinary protein to creatinine ratio (UP/C)>1.5 g/g. Randomization was stratified based on eGFR (≥30 to <60 mL/min/1.73 m^2 versus eGFR≥60 mL/min/1.73 m^2) and UP/C values (≤3.5 g/g versus >3.5 g/g for patients≥18 years of age, or ≤2 g/g versus >2 g/g for patients<18 years of age).
(§2) All patients were randomized at a 1:1 ratio to receive sparsentan or the active control, irbesartan. Sparsentan was administered at a dose of 400 mg once daily by mouth for 2 weeks and then titrated to 800 mg once daily as tolerated. Irbesartan was administered at a dose of 150 mg once daily by mouth for 2 weeks and then titrated to 300 mg once daily as tolerated. In patients weighing 50 kg or less, dosing was halved in both treatment arms (e.g., sparsentan administered at a dose of 200 mg once daily by mouth for 2 weeks and then titrated to 400 mg once daily as tolerated).
The proportion of patients achieving a UP/C≤1.5 g/g and a >40% reduction from baseline in UP/C was evaluated after patients completed 36 weeks of treatment.
In the DUPLEX Study, a total of 371 patients were randomized 1:1 to receive either sparsentan or irbesartan, the active control. The study protocol provided for an unblinded analysis to evaluate the interim efficacy endpoint—the proportion of patients achieving FPRE, which is a clinically meaningful endpoint defined as urine protein-to-creatinine ratio (UP/C)≤1.5 g/g and a >40 percent reduction in UP/C from Baseline, at Week 36—following the first approximately 190 patients reaching 36 weeks of treatment. After 36 weeks of treatment, 42.0 percent of patients receiving sparsentan achieved FPRE, compared to 26.0 percent of irbesartan-treated patients (p=0.0094).

The subject of data set [2] is patients with IgAN. Put plainly: PROTECT Phase 3 trial: change in proteinuria (UP/C) and eGFR, sparsentan vs irbesartan. It counts as in vivo, human. The following applies: for mean reduction in proteinuria (UP/C) from baseline: after 36 weeks of treatment, first 280 patients, sparsentan 200 mg titrated to 400 mg once daily or irbesartan 150 mg titrated to 300 mg once daily, oral, p<0.0001. As for the experimental part:
(§3) The long-term nephroprotective potential of treatment with sparsentan was evaluated in PROTECT, a 114-week, randomized, global, multicenter, double-blind, parallel-group, active-control Phase 3 clinical study in patients with IgAN who have persistent overt proteinuria and remain at high risk of disease progression despite being on a stable dose (or doses) of an angiotensin-converting enzyme inhibitor (ACEI) and/or angiotensin receptor blocker (ARB) that is (are) a maximum tolerated dose that is at least one half of the maximum labeled dose (MLD) (according to approved labeling). The purpose of the study is to evaluate the potential benefit of sparsentan on kidney function by analyzing change in proteinuria (protein in urine) and estimated glomerular filtration rate (eGFR) as compared to current standard treatment.
404 patients aged≥18 years were enrolled in the study globally.
Enrolled patients were at high risk of progressing to renal failure. The trial enrolled patients with eGFR≥30 mL/min/1.73 m^2 and urinary protein to creatinine ratio (UP/C)≥1.0 g/g at screening.
Inclusion criteria included: age 18 years or older at screening; biopsy-proven primary IgAN; proteinuria (UP/C) of ≥1 g/day at screening; eGFR≥30 mL/min/1.73 m^2 at screening; currently on stable dose of ACEI and/or ARB therapy, for at least 12 weeks prior to screening (maximum tolerated dose and at least one-half of the maximum labeled dose); systolic BP≤150 mmHg and diastolic BP≤100 mmHg at screening; willing to undergo change in ACEI and/or ARB and anti-hypertensive medications; and agree to contraception.
(§4) All patients were randomized at a 1:1 ratio to receive sparsentan or the active control, irbesartan (an angiotensin receptor blocker), as a single oral morning dose. Sparsentan was administered at a dose of 200 mg once daily by mouth for 2 weeks and then titrated to 400 mg once daily as tolerated. Irbesartan was administered at a dose of 150 mg once daily by mouth for 2 weeks and then titrated to 300 mg once daily as tolerated.
Change in proteinuria (UP/C) from baseline (Day 1) at Week 36 in sparsentan-treated patients as compared to irbesartan-treated patients was assessed. The Week 36 UP/C was based on a 24-hour urine sample. Secondary outcome measures included eGFR over a 52-week period and a 104-week period following the initial acute effect of randomized therapy. […] Also assessed was eGFR over a 58-week and a 110-week (approximately 2-year) period following the initiation of randomized therapy (the analysis is from Day 1 to 58 weeks postrandomization or from Day 1 to 110 weeks postrandomization, eGFR total slope at 2 years). […]

Data set [3] in a line: Open-label drug-drug interaction study in healthy adults: plasma dapagliflozin PK. As to conditions: for AUC(0-inf) / AUC(0-t) / Cmax: human, plasma, 10 mg; for AUC(0-inf): n = 16; for AUC(0-t) / Cmax: n = 20. It counts as in vivo, human. As for the experimental part: (§5) Potential drug-drug interactions (DDI) of sparsentan with SGLT2 inhibitors are not known. The safety of administering sparsentan and dapagliflozin was evaluated in an open-label, drug-drug interaction study in healthy […]. This phase 1 study examined the effect of multiple doses of sparsentan on the pharmacokinetics (PK) of single-dose dapagliflozin and assessed the safety and tolerability of single-dose dapagliflozin when co-administered after multiple doses of sparsentan in healthy adults.
(§6) The open-label DDI study included Period 1 (Days 1-5; single dose of 10 mg dapagliflozin (“DAPA”) on Day 1, PK sampling pre-dose and up to 96 hours post-dose) and Period 2 (Days 5-14; 800 mg sparsentan (“SPAR”) once daily for 10 days with single 10 mg dose DAPA co-administered on Day 11, DAPA PK sampling pre-dose and up to 96 hours after Day 11 dosing). To avoid hypoglycemic events, subjects received an oral 20% glucose solution in water with the DAPA dose and every ~15 minutes up to 4 hours post-dose. Plasma concentrations and PK parameters of DAPA and SPAR were summarized. Subjects with evaluable data for both periods were included in an ANOVA mixed model analysis of DAPA AUC0-t, AUC0-inf, and Cmax following DAPA+SPAR vs DAPA alone. Treatment-emergent adverse events (TEAEs) were summarized.

Data set [4] in a line: Open-label drug-drug interaction study in healthy adults: safety and tolerability (TEAEs). As to conditions: 10 mg DAPA, 800 mg SPAR once daily. It counts as in vivo, human. As for the experimental part:
as §5, §6

Data set [5] concerns angiotensin II receptors (Type 1) ("AT1" receptors). As to conditions: selective dual-acting receptor antagonist; cited from earlier work.
In data set [6] the test system is patients with IgAN. Put plainly: PROTECT Phase 3 trial: safety, interim analysis. It counts as in vivo, human. As to conditions: 400 mg once daily. The method, then: as §3, §4
The study provided for an analysis of topline results at 36 weeks, following the first 280 patients reaching 36 weeks of treatment.

Data set [7] deals with patients with FSGS. As to conditions: Phase 2 clinical study; cited from earlier work.
In data set [8] the test system is endothelin (A type) receptors ("ETA" receptors). As to conditions: selective dual-acting receptor antagonist; cited from earlier work.
The test system of data set [9] is patients with FSGS. Put plainly: DUPLEX trial: interim safety. It counts as in vivo, human. The method, then:
as §1, §2

With `CCCCC1=NC2(CCCC2)C(=O)N1Cc1ccc(-c2ccccc2-c2nnn[nH]2)cc1` [irbesartan], the “patients achieving FPRE (UP/C ≤1.5 g/g and >40 percent reduction in UP/C from Baseline)” value with patients with FSGS [1] is 26.0%. Besides, in the data set on patients with IgAN [2], the “mean reduction in proteinuria (UP/C) from baseline” value stood at 15.1%.
Consider `CCOc1ccc(Cc2cc([C@@H]3O[C@H](CO)[C@@H](O)[C@H](O)[C@H]3O)ccc2Cl)cc1` [DAPA, dapagliflozin], for which the “mean peak and extent of DAPA exposure (Cmax and AUC)” value in data set [3] (10 mg DAPA alone vs 10 mg DAPA+800 mg SPAR) is reported as “similar”. The AUC(0-inf) stood at 534 ng·h/mL in data set [3] (single 10 mg DAPA alone, Day 1, read-out: AUC0-inf, geometric LSMs (DAPA alone)) and 565 ng·h/mL in [3] (single 10 mg DAPA co-administered on Day 11 with 800 mg SPAR once daily for 10 days, read-out: AUC0-inf, geometric LSMs (DAPA + SPAR)). The AUC(0-t) was found to be 509 ng·h/mL in data set [3] (single 10 mg DAPA alone, Day 1, read-out: AUC0-t, geometric LSMs (DAPA alone)) and 526 ng·h/mL in data set [3] (single 10 mg DAPA co-administered on Day 11 with 800 mg SPAR once daily for 10 days, read-out: AUC0-t, geometric LSMs (DAPA + SPAR)). Further, the Cmax (usually the peak of the concentration-time curve) was determined as 73.9 ng/mL in [3] (single 10 mg DAPA alone, Day 1, read-out: Cmax, geometric LSMs (DAPA alone)) and 79.9 ng/mL in data set [3] (single 10 mg DAPA co-administered on Day 11 with 800 mg SPAR once daily for 10 days, read-out: Cmax, geometric LSMs (DAPA + SPAR)). Further, the “Cmax, GLSMR (DAPA + SPAR vs DAPA alone)” value in data set [3] (plasma dapagliflozin, 90% CI 96.0-121.8, intra-subject CV% 22.0) is given as 108.2%. The “AUC0-t, GLSMR (DAPA + SPAR vs DAPA alone)” value in [3] (plasma dapagliflozin, 90% CI 99.9-107.0, intra-subject CV% 6.3) is on record as 103.4%. For the same molecule, the “AUC0-inf, GLSMR (DAPA + SPAR vs DAPA alone)” value in [3] (plasma dapagliflozin, 90% CI 103.1-108.9, intra-subject CV% 4.4) is listed as 105.9%. Also, the “tolerability of single-dose DAPA co-administered with multiple doses of SPAR” value in data set [4] was “appeared to be well tolerated”.
As to `CCCCC1=NC2(CCCC2)C(=O)N1Cc1ccc(-c2ccccc2S(=O)(=O)Nc2noc(C)c2C)c(COCC)c1` [sparsentan, 2-[4-[(2-butyl-4-oxo-1,3-diazaspiro[4.4]non-1-en-3-yl)methyl]-2-(ethoxymethyl)phenyl]-N-(4,5-dimethyl-1,2-oxazol-3-yl)benzenesulfonamide], in data set [5], the “affinity for angiotensin II receptors (Type 1)” value is recorded as “selective dual-acting receptor antagonist”. Moreover, the “tolerability (preliminary interim results)” value in the data set on patients with IgAN [6] is recorded as “generally well-tolerated”. Also, the “effect of multiple dosing of SPAR on single-dose DAPA PK” value in [3] (healthy adults, 800 mg SPAR once daily for 10 days) is on record as “did not affect single-dose DAPA PK”. For the same molecule, the “reduction of proteinuria in patients with FSGS” value in the data set with patients with FSGS [7] is “shown to reduce proteinuria”. Further, the “affinity for endothelin (A type) receptors” value in [8] is “selective dual-acting receptor antagonist with affinity for endothelin (A type) receptors”. For the same molecule, the “proportion achieving composite endpoint, sparsentan arm vs irbesartan arm” value in the data set on patients with FSGS [1] (Week 36, vs irbesartan) is reported as “significantly higher”. Moreover, the “patients achieving FPRE (UP/C ≤1.5 g/g and >40 percent reduction in UP/C from Baseline)” value in the data set on patients with FSGS [1] is given as 42.0%. Further, the “tolerability (preliminary review of interim safety results)” value in the data set on patients with FSGS [9] (FSGS) is “generally well-tolerated”. The “overall safety profiles between treatment groups” value in the data set with patients with FSGS [9] (sparsentan vs active control treatment group) was “generally comparable between treatment groups”. In the data set on patients with IgAN [2] (36 weeks, sparsentan-treated vs irbesartan-treated group), the “reduction in proteinuria compared to the irbesartan-treated group” value is given as “greater than threefold reduction in proteinuria”. Moreover, in the data set with patients with IgAN [2], the “mean reduction in proteinuria (UP/C) from baseline” value is 49.8%. The “preliminary eGFR data at interim analysis” value with patients with IgAN [2] (interim analysis, after two years of treatment) was “indicative of a potential clinically meaningful treatment effect”.
